Results: US9932327B2, “Rohitukine analogs as cyclin-dependent kinase inhibitors and a process for the preparation thereof” (COUNCIL OF SCIENTIFIC AND INDUSTRIAL RESEARCH, priority 2013, dated 2018)
Values after ≈ are worked out from the molar mass of the structure shown. Where two headings read alike, the source gives them in different places. Blank lines part the entries; values can stand above or below the molecule they belong to.

Legend:
CDK1/cyclin B = settings: Gray, N. et al. Curr. Med. Chem. 1999, 6, 859; cited from earlier work
HL-60 (Leukemia) = experiment: Cytotoxicity, MTT assay, HL-60; type: cell-based; settings: Homo sapiens; for inhibition at 10 µM: read-out: Cell Growth Inhibition (%)
Procedure: (§1) Compounds proposed in the present invention were evaluated for their cytotoxic effect against panel of six cancer cell line viz. HL-60 (Leukemia), PC-3 (Prostate), A-375 (Melanoma), MIAPaCa-2 (pancreatic), MCF-7 (Breast) and Caco-2 (Colon) using MTT assay. In each well of a 96-well plate, 3×10^3 cells were grown in 100 μL of medium. After 24 h, each test molecules were added to achieve a final concentration of 10 to 0.01 μmol/L, respectively. After 48 h of treatment, 20 μL of 2.5 mg/mL MTT (Organics Research, Inc.) solution in phosphate buffer saline was added to each well. After 48 h, supernatant was removed and formazan crystals were dissolved in 200 μL of DMSO. Absorbance was then measured at 570 nm using an absorbance plate reader (Bio-Rad Microplate Reader). Data are expressed as the percentage of viable cells in treated relative to non-treated conditions.

PC-3 (Prostate) = experiment: Cytotoxicity, MTT assay, PC-3; type: cell-based; settings: for inhibition at 10 µM: read-out: Cell Growth Inhibition (%)
Procedure: as §1

A-375 (Melanoma) = experiment: Cytotoxicity, MTT assay, A-375; type: cell-based; settings: Homo sapiens; for inhibition at 10 µM: read-out: Cell Growth Inhibition (%)
Procedure: as §1

MCF-7 (Breast) = experiment: Cytotoxicity, MTT assay, MCF-7; type: cell-based; settings: Homo sapiens; for IC50: MCF7; for inhibition at 10 µM: MCF7, 10 μM, read-out: Cell Growth Inhibition (%)
Procedure: as §1

Caco-2 (Colon) = experiment: Cytotoxicity, MTT assay, Caco-2; type: cell-based; settings: Homo sapiens; for inhibition at 10 µM: read-out: Cell Growth Inhibition (%)
Procedure: as §1

CDK-2/cyclin A = CDK-2/cyclin A (Homo sapiens (Human), UniProt P24941); experiment: Inhibition of CDK-2/cyclin A; type: biochemical
[1] = tested on: Ehrlich solid tumor (EAC cells); experiment: In vivo anticancer activity in Ehrlich solid tumor mice model; design: species or system Swiss mice
Procedure: Ehrlich ascites carcinoma (EAC) cells were collected from the peritoneal cavity of the swiss mice harbouring 8-10 days old ascitic tumor. 1×10^7 EAC cells were injected intramuscularly in right thigh of 31 Swiss male mice selected for the experiment on day 0. The next day, animals were randomized and divided into four groups. Three treatment groups contained 7 animals each and one control group contained 10 animals. Treatment was given as follows:
Group I: Compound 33 (50 mg/kg i/p) from day 1-9.
Group II: Compound 33 (70 mg/kg i/p) from day 1-9.
The third treatment group was treated with 5-fluorouracil (22 mg/kg, i.p) from day 1-9 and it served as positive control. The control group was similarly administered normal saline (0.2 ml, i.p.) from day 1-9. On day 9 & 13, tumor bearing thigh of each animal was shaved and longest and shortest diameters of the tumor were measured with the help of vernier caliper. Tumor weight of each animal was calculated using the following formula.
The percent tumor growth inhibition was calculated on day 13 by comparing the average values of treated groups with that of control group. Tumor growth in saline treated control animals was taken to be 100%.

[2] = Thermodynamic equilibrium solubility; type: physicochemical; settings: 25 °C, thermodynamic from solid
Procedure: The compounds were first dissolved in methanol to prepare stock solutions (100 and 1000 μg/mL). Different concentrations of stock solutions were pipetted into the 96-well plates and the solvent was evaporated to ensure that solid drug was present in the beginning of the experiment. […] The plates were kept overnight for equilibration of drug in medium. Later, the plates were centrifuged at 3000 rpm for 15 min (Jouan centrifuge BR4i). Supernatant (50 μl) was pipetted into UV 96-well plates (Corning® 96 Well Clear Flat Bottom UV-Transparent Microplate) for analyses with plate reader (SpectraMax Plus384) at λmax of 350 nm. The analyses were performed in triplicate for each compound. The solubility curve of concentration (μg/mL) vs absorbance was plotted to find out saturation point and the corresponding concentration was noted (Heikkilä, T. et al. Int. J. Pharm. 2011, 405, 132).

CDK-9/Cyclin T1 = CDK-9/Cyclin T1 (Homo sapiens (Human), UniProt P50750); experiment: Inhibition of CDK-9/cyclin T1; settings: IC50 (nM) CDK-9/T1
MIAPaCa-2 (pancreatic) = experiment: Cytotoxicity, MTT assay, MIAPaCa-2; type: cell-based; settings: Homo sapiens, MIA PaCa-2, read-out: Cell Growth Inhibition (%)
Procedure: as §1

[3] = water, 25±1° C., read-out: Solubility in μg/mL, Water
[4] = phosphate buffer saline (PBS), aqueous buffer, read-out: Solubility in μg/mL, PBS
[5] = simulated gastric fluid (SGF), simulated gastric fluid, read-out: Solubility in μg/mL, SGF
[6] = simulated intestinal fluid (SIF), fassgf or other biorelevant, read-out: Solubility in μg/mL, SIF
[7] = 22 mg/kg i/p day 1-9, positive control

Sequence of CDK-9/Cyclin T1 (P50750 whole entry): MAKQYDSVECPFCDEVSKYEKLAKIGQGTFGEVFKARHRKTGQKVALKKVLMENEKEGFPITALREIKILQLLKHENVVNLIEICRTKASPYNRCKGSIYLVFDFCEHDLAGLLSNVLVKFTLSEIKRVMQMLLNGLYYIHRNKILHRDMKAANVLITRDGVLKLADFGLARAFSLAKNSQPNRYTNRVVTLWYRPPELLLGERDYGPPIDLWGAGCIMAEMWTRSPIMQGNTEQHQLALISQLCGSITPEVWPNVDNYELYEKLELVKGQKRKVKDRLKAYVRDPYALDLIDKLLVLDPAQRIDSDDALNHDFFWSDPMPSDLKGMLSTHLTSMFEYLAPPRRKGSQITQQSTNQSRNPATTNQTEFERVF
Sequence of CDK-9/Cyclin T1 (O60563 whole entry partner): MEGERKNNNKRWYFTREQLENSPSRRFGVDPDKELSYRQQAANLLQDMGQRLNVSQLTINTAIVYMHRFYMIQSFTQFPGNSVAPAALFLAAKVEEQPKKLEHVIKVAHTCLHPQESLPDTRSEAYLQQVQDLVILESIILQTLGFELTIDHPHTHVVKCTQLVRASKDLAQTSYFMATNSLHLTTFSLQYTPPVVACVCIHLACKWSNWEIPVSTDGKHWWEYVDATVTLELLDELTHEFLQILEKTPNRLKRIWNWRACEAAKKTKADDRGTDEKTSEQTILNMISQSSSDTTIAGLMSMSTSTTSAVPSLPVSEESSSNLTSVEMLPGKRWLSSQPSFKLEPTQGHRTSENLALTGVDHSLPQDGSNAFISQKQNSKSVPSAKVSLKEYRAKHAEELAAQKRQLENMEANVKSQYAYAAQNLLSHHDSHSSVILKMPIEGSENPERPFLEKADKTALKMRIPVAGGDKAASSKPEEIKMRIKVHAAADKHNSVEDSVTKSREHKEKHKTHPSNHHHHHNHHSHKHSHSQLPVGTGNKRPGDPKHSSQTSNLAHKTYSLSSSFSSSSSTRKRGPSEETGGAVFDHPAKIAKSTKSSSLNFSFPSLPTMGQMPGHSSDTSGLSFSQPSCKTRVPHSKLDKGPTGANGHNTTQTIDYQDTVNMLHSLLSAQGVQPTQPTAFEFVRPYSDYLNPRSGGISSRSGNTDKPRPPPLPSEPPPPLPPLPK

Compound: CN(C)c1ncnc2nc[nH]c12 [dimethylaminopurine]
IC50 (CDK1/cyclin B): 120 µM

Compound: CN1CCC(c2c(O)cc(O)c3c(=O)cc(/C=C/c4c(Cl)cccc4Cl)oc23)C(O)C1 (stereo not drawn) [Compound 33, 2-(2,6-dichlorostyryl)-5,7-dihydroxy-8-(3-hydroxy-1-methylpiperidin-4-yl)-4H-chromen-4-one]
IC50 (HL-60 (Leukemia)): 0.9 µM
IC50 (PC-3 (Prostate)): 41 µM
IC50 (A-375 (Melanoma)): 8 µM
IC50 (MCF-7 (Breast)): 4 µM
IC50 (Caco-2 (Colon)): 7 µM
IC50 (CDK-2/cyclin A): 16 nM
Day 13 % Tumor Growth Inhibition ([1]; 50 mg/kg i/p day 1-9): 33.11%
Day 13 Av. Tumor weights ([1]; 50 mg/kg i/p day 1-9): 989.12 mg
Mortality ([1]; 50 mg/kg i/p day 1-9): 0/7
Day 13 % Tumor Growth Inhibition ([1]; 70 mg/kg i/p day 1-9): 37.65%
Day 13 Av. Tumor weights ([1]; 70 mg/kg i/p day 1-9): 922.0 mg
Mortality ([1]; 70 mg/kg i/p day 1-9): 0/7
solubility [2, 3]: 5 µg/mL (≈ 10.8 µM)
solubility [2, 4]: 5 µg/mL (≈ 10.8 µM)
solubility [2, 5]: 40 µg/mL (≈ 86.5 µM)
solubility [2, 6]: 20 µg/mL (≈ 43.3 µM)
IC50 (CDK-9/Cyclin T1): 2 nM

IC50 (CDK-2/cyclin A): 466 nM
IC50 (CDK-9/Cyclin T1): 30 nM
Compound: CN1CCC(c2c(O)cc(O)c3c(=O)cc(/C=C/c4cccc(F)c4)oc23)C(O)C1 (stereo not drawn) [Compound 35, 2-(3-fluorostyryl)-5,7-dihydroxy-8-(3-hydroxy-1-methylpiperidin-4-yl)-4H-chromen-4-one]

Compound: O=c1[nH]cc(F)c(=O)[nH]1 [Compound 5-FU, 5-fluorouracil, reference compound]
Day 13 % Tumor Growth Inhibition [1, 7]: 58.50%
Day 13 Av. Tumor weights [1, 7]: 613.71 mg
Mortality [1, 7]: 0/7

Compound: CN1CCC(c2c(O)cc(O)c3c(=O)cc(/C=C/c4c(Cl)cccc4Cl)oc23)C(O)C1.Cl (stereo not drawn) [Hydrochloride salt of 33, 2-(2,6-dichlorostyryl)-5,7-dihydroxy-8-(3-hydroxy-1-methylpiperidin-4-yl)-4H-chromen-4-one hydrochloride]
solubility [2, 3]: > 1500 µg/mL
solubility [2, 4]: 40 µg/mL
solubility [2, 5]: 40 µg/mL
solubility [2, 6]: 10 µg/mL

solubility [2, 3]: > 1500 µg/mL
solubility [2, 4]: 40 µg/mL
solubility [2, 5]: 80 µg/mL
solubility [2, 6]: 40 µg/mL
Compound: CN1CCC(c2c(O)cc(O)c3c(=O)cc(/C=C/c4c(F)c(F)c(F)c(F)c4F)oc23)C(O)C1.Cl (stereo not drawn) [Hydrochloride salt of 34, 2-(2,3,4,5,6-pentafluorostyryl)-5,7-dihydroxy-8-(3-hydroxy-1-methylpiperidin-4-yl)-4H-chromen-4-one hydrochloride]

IC50 (CDK-2/cyclin A): 608 nM
solubility [2, 3]: 5 µg/mL (≈ 10.3 µM)
solubility [2, 4]: 10 µg/mL (≈ 20.7 µM)
solubility [2, 5]: 80 µg/mL (≈ 165 µM)
solubility [2, 6]: 20 µg/mL (≈ 41.4 µM)
IC50 (CDK-9/Cyclin T1): 12 nM
Compound: CN1CCC(c2c(O)cc(O)c3c(=O)cc(/C=C/c4c(F)c(F)c(F)c(F)c4F)oc23)C(O)C1 (stereo not drawn) [Compound 34, 2-(2,3,4,5,6-pentafluorostyryl)-5,7-dihydroxy-8-(3-hydroxy-1-methylpiperidin-4-yl)-4H-chromen-4-one]
IC50 (HL-60 (Leukemia)): 3 µM
IC50 (PC-3 (Prostate)): 30 µM
IC50 (A-375 (Melanoma)): 8 µM
IC50 (MCF-7 (Breast)): 4 µM
IC50 (Caco-2 (Colon)): 7 µM

Compound: Cc1cc(=O)c2c(O)cc(OCc3ccco3)c(C3CCN(C)CC3O)c2o1 (stereo not drawn) [Compound 5, 7-((Furan-2-yl)methoxy)-5-hydroxy-8-(3-hydroxy-1-methylpiperidin-4-yl)-2-methyl-4H-chromen-4-one]
inhibition at 10 µM (HL-60 (Leukemia)): 31.9%
inhibition at 10 µM (PC-3 (Prostate)): 14.1%
inhibition at 10 µM (A-375 (Melanoma)): 36.8%
inhibition at 10 µM (MIAPaCa-2 (pancreatic)): 6.61%
inhibition at 10 µM (MCF-7 (Breast)): 5.73%
inhibition at 10 µM (Caco-2 (Colon)): 16.9%

IC50 (CDK-2/cyclin A): > 10000 nM
IC50 (CDK-9/Cyclin T1): 550 nM
Compound: Cc1cc(=O)c2c(O)cc(O)c(C3CCN(C)CC3O)c2o1 (stereo not drawn) [Compound 1, 5,7-dihydroxy-8-(3-hydroxy-1-methylpiperidin-4-yl)-2-methyl-4H-chromen-4-one, reference compound]
IC50 (HL-60 (Leukemia)): 6 µM
inhibition at 10 µM (HL-60 (Leukemia)): 83.3%
inhibition at 10 µM (PC-3 (Prostate)): 32.9%
inhibition at 10 µM (A-375 (Melanoma)): 41.2%
inhibition at 10 µM (MIAPaCa-2 (pancreatic)): 1.46%
inhibition at 10 µM (MCF-7 (Breast)): 15.4%
inhibition at 10 µM (Caco-2 (Colon)): 11.9%
